In assay [1] the test system is PANC-1 (pancreatic). Briefly: MTS anti-proliferative assay in PANC-1 cells. The format is cell-based. The following applies: Table 8, 48 h, mean ± SEM. The method, then:
(§1) Cell viability was assessed by MTS proliferation assay kit (Promega) per manufacturer's protocol. Briefly, 2×10^4 cells were plated in a 96-well plate in 100 μL growth medium to make the cell population at ˜80% confluence. After 24 h, 1 μL drug solution was added to each well. DMSO was used as vehicle compound. After 48 h incubation (37° C., 5% CO2), 20 μL of freshly prepared 3-(4,5-dimethylthiazol-2-yl)-5-(3-carboxymethoxyphenyl)-2-(4-sulfophenyl)-2H-tetrazolium (MTS)/phenazine methosulfate (PMS) solution was added to each well, and the plate was returned to the incubator for 1 h. Absorbance at 490 nm was recorded, and the result was analyzed by GraphPad Prism 5. GI50 values represent mean±SEM for at least two separate experiments performed in triplicate.
(In general: Tetrazolium dyes change colour on reduction, which living cells bring about.)

Assay [2] relates to ASZ001 cells. The experiment in a line: MTS anti-proliferative assay in ASZ001 cells. The format is cell-based, murine. The following applies: Table 5, 48 h, Ave ± SEM.
For assay [3], the target named is T1, GLI1-ZFD (Homo sapiens, UniProt P08151).
T1 construct: GLI1-ZFD Expression and Purification; made in house
T1 sequence (P08151 234-388 limits assumed): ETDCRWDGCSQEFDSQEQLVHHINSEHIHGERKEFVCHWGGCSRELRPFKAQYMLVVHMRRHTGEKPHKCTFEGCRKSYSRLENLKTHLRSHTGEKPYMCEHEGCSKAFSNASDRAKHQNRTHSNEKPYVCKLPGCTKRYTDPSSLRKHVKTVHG
Briefly: Microscale thermophoresis (MST) binding to GLI1-ZFD. Here is the method:
The protein expression and purification experiments followed the previous reported procedures [C. A. Maschinot, et al., Synthesis and evaluation of third generation vitamin D3 analogues as inhibitors of hedgehog signaling. Euro. J. Med. Chem. 162 (2019) 495-506].
GLI1 protein labeling was performed through the Monolith Protein Labeling Kit RED-NHS 2nd Generation (Nanotemper #MO-LO11) per the manufacturer's instructions. Briefly, GLI1 (100 μg, 1 mg/mL) underwent buffer exchange to remove incompatible ingredients like Tris or DTT. Proteins in the Labeling Buffer were incubated with freshly prepared dye (˜3-fold excess of dye) for 30 min at RT in the dark. Unreacted ‘free’ dye was removed by a gel-filtration column. Protein concentration and degree-of-labeling were calculated by measuring absorption at 280 nm and 650 nm. For each assay, 200 nM GLI1 in MST Buffer was mixed with compound dilution in DMSO (DMSO<5%, v/v). The mixture was then loaded to a capillary and the thermophoresis was subsequently determined through Monolith NT.115 station. Results were analyzed by MO.Affinity Analysis software and visualized by Graphpad Prism. MST Buffer: 50 mM HEPES, pH 8.3, 100 mM NaCl.
For orientation: In MST a laser heats a spot of the sample, and binding alters the fluorescence response.

In assay [4] the test system is DAOY (MB). The experiment in a line: MTS anti-proliferative assay in DAOY cells. The format is cell-based. The following applies: Table 8, 48 h, mean ± SEM. Here is the method:
as §1

Assay [5] concerns GLI1 mRNA expression. The experiment in a line: RT-qPCR GLI1 mRNA expression in ASZ001 BCC cells. Type of assay: cell-based, mouse.
Assay [6] has as its system GLI1 mRNA expression. The experiment in a line: RT-qPCR GLI1 mRNA expression in OHCs-stimulated C3H10T1/2 MEFs. The format is cell-based, mouse. The following applies: for % Gli1 Expression: C3H10T1/2 MEFs, 10 μM, relative to Hh-agonist OHCs (set as 100%); for IC50: Mus musculus. Here is the method:
(§2) ASZ001 and Sufu-KO cells were seeded in 96-well plates (10,000/well, 100 μL) and incubated overnight under growth conditions. On the second day, ‘growth’ media was removed and replaced by ‘assay’ media (100 μL). On the third day, cells were treated with a serial dilution of drugs or DMSO for 48 h. mRNA expression was determined through Taqman Fast Cells-to-CT Kit (#4399003) per the manufacturer's instructions. In brief, cells were washed with chilled PBS, then mixed with lysis solution containing DNase I and incubated at RT for 5 min. Stop solution was then added to quench the lysis reagents. cDNA was then synthesized through a BioRad MyCycler following addition of reverse transcriptase. Finally, the cDNA was amplified through an ABI 7500 system following addition of Taqman Fast Universal PCR Master Mix and Taqman Gene Expression Primer. Relative gene expression levels were computed by the ΔΔCt method. Values represent mRNA expression relative to DMSO control (set at 1.0). Data were analyzed using GraphPad Prism, and IC50 values are the mean±SEM for at least two separate experiments performed in triplicate. Primers used are as follows: mouse ActB (Mm00607939_s1); mouse GLI1 (Mm00494645_ml); mouse Gli2 (Mm01293117_ml); mouse Ptch1 (Mm00436026_ml); mouse Hhip (Mm00469580_ml).
C3H10T1/2 MEFs were seeded in 24-well plates (50,000/well, 500 μL). Following 24 h incubation, the ‘growth’ media was removed and replaced with ‘assay’ media (500 μL). On the third day, cells were treated with either DMSO, OHCs, or OHCs+drugs. Following a 24 h incubation, gene expression analysis was carried out following identical protocols as described above.
(In qPCR the cycle at which signal appears reflects the starting amount.)

Assay [7] relates to GLI2 protein expression. Briefly: Western blot GLI2 protein expression in ASZ001 cells. The settings on record: 25 μM. Type of assay: cell-based, murine. The method, then: (§3) ASZ001 cells were plated as described above and treated with drugs or vehicle control. Following incubation, cells were washed with chilled PBS and lysed with RIPA buffer containing […] PMSF protease inhibitor (Thermo Scientific #26978). Supernatant was collected following 15 min centrifugation at 12,000 rpm and 4° C. Protein concentrations from cell extracts were determined through the BCA kit (Pierce #23228) per the manufacturer's instructions. Proteins from either cell lysate or cell-free biochemical assay were then loaded on 12% SDS-PAGE. Following electrophoresis, proteins were transferred onto nitrocellulose membrane at 100 V for 120 min at 4° C. On a clean tray with constant gentle shaking, the membrane was sequentially submerged in 5% BSA for 1 h, and incubated with the primary antibody indicated overnight at 4° C. After washes with TBST, the appropriate secondary antibody was added to the tray for a 2 h incubation at RT. Chemiluminescent detection on film was visualized using ECL reagents (BioRad #1705060) and subsequently quantitated using Image J (http://imagej.nih.gov). Primary antibodies were used at 1:2000 dilution and are as follows: GLI1 (#MA5-32553); Gli2 (#PA5-79314); β-Actin (#PA1-16889). Secondary antibody (Goat anti-Rabbit, #32460) was used at a 1:5000 dilution. All antibodies were purchased from Invitrogen.

Assay [8] has as its system GLI1 mRNA expression. Briefly: RT-qPCR GLI1 mRNA expression in Sufu-KO MEFs. The format is cell-based, mouse.
The test system of assay [9] is Hhip mRNA expression. Briefly: RT-qPCR Hhip mRNA expression in ASZ001 cells. The format is cell-based, mouse. The settings on record: 10 μM, FIG. 4A. The method, then:
as §2

Assay [10] relates to GLI1 protein levels. Briefly: Western blot GLI1 protein expression in ASZ001 cells. Type of assay: cell-based, murine. The following applies: 25 μM. Here is the method: as §3
Assay [11] deals with Gli2 mRNA expression. Briefly: RT-qPCR Gli2 mRNA expression in ASZ001 cells. The format is cell-based, mouse. The following applies: 10 μM. The method, then:
as §2

For assay [12], the system named is Ptch1 mRNA expression. Briefly: RT-qPCR Ptch1 mRNA expression in ASZ001 cells. The settings on record: FIG. 4A. The format is cell-based, mouse. Here is the method:
as §2

Experimental findings from patent US20240299400A1, “Transcription Factor GLI1 Inhibitors and Uses Thereof” (University of Connecticut, priority 2023, published 2024) are described below.

By GI50 is commonly meant the concentration giving 50% growth inhibition. The term Kd denotes the free concentration of one partner at which half of the binding sites on the other are occupied at equilibrium, for simple one-to-one binding. Read a low Kd as higher affinity.

With `CN(C)c1ccccc1CN1CCCN(Cc2ccccc2N(C)C)C1c1ccncc1` [GANT61, reference compound], the values for the GI50 in assay [1], in [2] and in assay [4] were 35.2 ± 7.5 µM, 57.5 ± 14 µM and 27.2 ± 3.6 µM, respectively. The molecule further displayed a Kd in assay [3] (Table 5, Ave ± SEM) of 65.2 ± 15.2 µM. The IC50 in assay [5] (Table 5, GLI1 mRNA, Ave ± SEM, read-out: RT-qPCR, IC50 ASZ001) was 11.1 ± 1.5 µM; in [8] (Table 5, GLI1 mRNA, Ave ± SEM, read-out: RT-qPCR, IC50 Sufu-KO), 5.3 ± 1.4 µM. Besides, the “% Gli1 Expression” value in assay [6] (mean ± SEM) worked out at 72.4 ± 5.6%. For the same molecule, in assay [7], the “GLI2 protein expression (in words)” value is “inactive”. The “expression of Hhip mRNA (in words)” value in assay [9] was “more effective at reducing Hhip expression compared to GLI1”. The “GLI1 protein levels (in words)” value in assay [10] is “significantly down-regulated”.

`CCN(CC)c1ccc(C(Nc2ccccn2)c2ccc3ccc(C)nc3c2O)cc1` (centres unmarked) [Compound 1]: the GI50 worked out at 21.1 ± 4.2 µM in assay [1] (Homo sapiens, PANC-1); 13.8 ± 3.4 µM in assay [2] (Mus musculus, ASZ001); 14.1 ± 2 µM in [4] (Homo sapiens, Daoy). Also, the equilibrium dissociation constant (Kd) stood at 13.4 ± 4 µM in assay [3] (Table 2, mean ± SEM); 13.4 ± 4 µM in [3] (Table 4, mean ± SEM); 13.8 ± 3.4 µM in assay [3] (Table 5, Ave ± SEM). Further, the IC50 came out at 1.3 ± 0.7 µM in assay [5] (Mus musculus, ASZ001, Table 2, mean ± SEM, read-out: GLI1 mRNA expression, IC50 ASZ001); 1.3 ± 0.7 µM in assay [5] (Mus musculus, ASZ001, Table 4, racemates and enantiomers, mean ± SEM, read-out: RT-qPCR, IC50 ASZ001); 1.3 ± 0.7 µM in assay [5] (Mus musculus, ASZ001, Table 5, GLI1 mRNA, Ave ± SEM, read-out: RT-qPCR, IC50 ASZ001); 0.26 ± 0.16 µM in [6] (C3H 10T1/2, Table 2, mean ± SEM, read-out: GLI1 mRNA expression, IC50 C3H10T1/2); 0.26 ± 0.16 µM in assay [6] (C3H 10T1/2, Table 4, racemates and enantiomers, mean ± SEM, read-out: RT-qPCR, IC50 C3H10T1/2); 1.5 ± 0.5 µM in [8] (Mus musculus, Table 2, mean ± SEM, read-out: GLI1 mRNA expression, IC50 Sufu-KO). In addition, the IC50 is 1.5 ± 0.5 µM in [8] (Mus musculus, Table 4, racemates and enantiomers, mean ± SEM, read-out: RT-qPCR, IC50 Sufu-KO); 1.5 ± 0.5 µM in assay [8] (Mus musculus, Table 5, GLI1 mRNA, Ave ± SEM, read-out: RT-qPCR, IC50 Sufu-KO). Moreover, the “% Gli1 Expression” value in assay [6] (mean ± SEM) was 5.9 ± 0.5%. In addition, the “GLI2 protein expression (in words)” value in assay [7] is “significantly suppressed”. The “inhibition of Gli2 mRNA expression, rank (in words)” value in assay [11] is “most active”. In addition, the “GLI1 protein levels (in words)” value in assay [10] is “significantly down-regulated”. For the same molecule, the “Ptch1 mRNA expression (in words)” value in [12] is given as “significantly down-regulated”.
